Measurements taken from the supplement of paper PMC10307832.

Key:
Assay in all cases: relative viability (nuclei count vs DMSO), 5 days (fraction); higher = more cells survive
[1] = compound: CC1=CC(=CC=C1)NC2=NC(=CS2)C3=CC=NC=C3 + O=C(c1cc(Cc2n[nH]c(=O)c3ccccc23)ccc1F)N1CCN(C(=O)C2CC2)CC1 [Olaparib] (partner 8 µM)
Outline: (§1)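 For relative viability, nuclei counts in treated wells were divided by those in vehicle wells. Lung cancer cell lines had been pin-tool dosed in 1536-well plates the day after seeding and cultured for 5 days, then fixed and stained in one step (final 0.05% Triton X-100, 1% formaldehyde, 1 ug/ml Hoechst) and imaged at 4×. Doses were one drug alone or a fixed anchor-drug dose plus five library-drug doses (not always all listed) in √10 steps, and values are duplicate-plate medians.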

[2] = compound: CC1=CC(=CC=C1)NC2=NC(=CS2)C3=CC=NC=C3 + Nc1nc2[nH]cc(CCc3ccc(C(=O)N[C@@H](CCC(=O)O)C(=O)O)cc3)c2c(=O)[nH]1 [Pemetrexed] (partner 0.2 µM)
Outline: as §1

[3] = compound: Cc1ccc(NC(=O)c2ccc(CN3CCN(C)CC3)cc2)cc1Nc1nc(-c2cccnc2)cs1 [Masitinib] + O=C(CCCCCCC(=O)Nc1ccccc1)NO [Vorinostat] (partner 1 µM)
Outline: as §1

[4] = compound: Cc1ccc(NC(=O)c2ccc(CN3CCN(C)CC3)cc2)cc1Nc1nc(-c2cccnc2)cs1 [Masitinib] + CS(=O)(=O)N1CCN(Cc2cc3nc(-c4cccc5[nH]ncc45)nc(N4CCOCC4)c3s2)CC1 [Pictilisib] (partner 1 µM)
Outline: as §1

LOU-NH91
relative viability ([1]; first compound 0.08 µM): 0.8
relative viability ([1]; first compound 0.253 µM): 0.862
relative viability ([1]; first compound 0.8 µM): 0.889
relative viability ([1]; first compound 2.53 µM): 0.887
relative viability ([1]; first compound 8 µM): 0.855
relative viability ([2]; first compound 0.08 µM): 0.38
relative viability ([2]; first compound 0.253 µM): 0.391
relative viability ([2]; first compound 0.8 µM): 0.348
relative viability ([2]; first compound 2.53 µM): 0.366
relative viability ([2]; first compound 8 µM): 0.366
relative viability ([3]; first compound 0.01 µM): 0.84
relative viability ([3]; first compound 0.03162 µM): 0.795
relative viability ([3]; first compound 0.1 µM): 0.884
relative viability ([3]; first compound 0.3162 µM): 0.793
relative viability ([3]; first compound 1 µM): 0.883
relative viability ([4]; first compound 0.01 µM): 0.497
relative viability ([4]; first compound 0.03162 µM): 0.499
relative viability ([4]; first compound 0.1 µM): 0.492
relative viability ([4]; first compound 0.3162 µM): 0.432
relative viability ([4]; first compound 1 µM): 0.501

LU99A
relative viability ([1]; first compound 0.08 µM): 0.233
relative viability ([1]; first compound 0.253 µM): 0.262
relative viability ([1]; first compound 0.8 µM): 0.275
relative viability ([1]; first compound 2.53 µM): 0.27
relative viability ([1]; first compound 8 µM): 0.237
relative viability ([2]; first compound 0.08 µM): 0.141
relative viability ([2]; first compound 0.253 µM): 0.199
relative viability ([2]; first compound 0.8 µM): 0.171
relative viability ([2]; first compound 2.53 µM): 0.178
relative viability ([2]; first compound 8 µM): 0.182
relative viability ([3]; first compound 0.01 µM): 0.455
relative viability ([3]; first compound 0.03162 µM): 0.433
relative viability ([3]; first compound 0.1 µM): 0.492
relative viability ([3]; first compound 0.3162 µM): 0.534
relative viability ([3]; first compound 1 µM): 0.467
relative viability ([4]; first compound 0.01 µM): 0.324
relative viability ([4]; first compound 0.03162 µM): 0.332
relative viability ([4]; first compound 0.1 µM): 0.346
relative viability ([4]; first compound 0.3162 µM): 0.349
relative viability ([4]; first compound 1 µM): 0.279

NCI-H522
relative viability ([1]; first compound 0.08 µM): 0.708
relative viability ([1]; first compound 0.253 µM): 0.579
relative viability ([1]; first compound 0.8 µM): 0.746
relative viability ([1]; first compound 2.53 µM): 0.544
relative viability ([1]; first compound 8 µM): 0.704
relative viability ([2]; first compound 0.08 µM): 0.966
relative viability ([2]; first compound 0.253 µM): 1.12
relative viability ([2]; first compound 0.8 µM): 1.17
relative viability ([2]; first compound 2.53 µM): 0.995
relative viability ([2]; first compound 8 µM): 1.19
relative viability ([3]; first compound 0.01 µM): 0.822
relative viability ([3]; first compound 0.03162 µM): 0.904
relative viability ([3]; first compound 0.1 µM): 1.07
relative viability ([3]; first compound 0.3162 µM): 1.06
relative viability ([3]; first compound 1 µM): 0.821

NCI-H727
relative viability ([1]; first compound 0.08 µM): 0.67
relative viability ([1]; first compound 0.8 µM): 0.679
relative viability ([1]; first compound 8 µM): 0.743
relative viability ([3]; first compound 0.01 µM): 1.13
relative viability ([3]; first compound 0.03162 µM): 1.36
relative viability ([3]; first compound 0.1 µM): 1.38
relative viability ([3]; first compound 0.3162 µM): 0.988
relative viability ([3]; first compound 1 µM): 1.09
relative viability ([4]; first compound 0.01 µM): 0.506
relative viability ([4]; first compound 0.03162 µM): 0.416
relative viability ([4]; first compound 0.1 µM): 0.443
relative viability ([4]; first compound 0.3162 µM): 0.317
relative viability ([4]; first compound 1 µM): 0.317

NCI-H1299
relative viability ([1]; first compound 0.08 µM): 1.01
relative viability ([1]; first compound 0.253 µM): 1
relative viability ([1]; first compound 0.8 µM): 0.889
relative viability ([1]; first compound 2.53 µM): 0.904
relative viability ([1]; first compound 8 µM): 0.854
relative viability ([4]; first compound 0.01 µM): 0.8
relative viability ([4]; first compound 0.03162 µM): 0.785
relative viability ([4]; first compound 0.1 µM): 0.81
relative viability ([4]; first compound 0.3162 µM): 0.947
relative viability ([4]; first compound 1 µM): 0.736

NCI-H1563
relative viability ([2]; first compound 0.08 µM): 0.744
relative viability ([2]; first compound 0.253 µM): 0.739
relative viability ([2]; first compound 0.8 µM): 0.717
relative viability ([2]; first compound 2.53 µM): 0.742
relative viability ([2]; first compound 8 µM): 0.881
relative viability ([4]; first compound 0.01 µM): 0.656
relative viability ([4]; first compound 0.03162 µM): 0.641
relative viability ([4]; first compound 0.1 µM): 0.647
relative viability ([4]; first compound 0.3162 µM): 0.665
relative viability ([4]; first compound 1 µM): 0.676

NCI-H1648
relative viability ([1]; first compound 0.08 µM): 0.545
relative viability ([1]; first compound 0.253 µM): 0.412
relative viability ([1]; first compound 0.8 µM): 0.656
relative viability ([1]; first compound 2.53 µM): 0.477
relative viability ([1]; first compound 8 µM): 0.392
relative viability ([2]; first compound 0.08 µM): 0.639
relative viability ([2]; first compound 0.253 µM): 0.626
relative viability ([2]; first compound 0.8 µM): 0.749
relative viability ([2]; first compound 2.53 µM): 0.673
relative viability ([2]; first compound 8 µM): 0.633
relative viability ([3]; first compound 0.01 µM): 0.471
relative viability ([3]; first compound 0.03162 µM): 0.401
relative viability ([3]; first compound 0.1 µM): 0.454
relative viability ([3]; first compound 1 µM): 0.555

NCI-H1703
relative viability ([1]; first compound 0.08 µM): 0.313
relative viability ([1]; first compound 0.253 µM): 0.33
relative viability ([1]; first compound 0.8 µM): 0.359
relative viability ([1]; first compound 2.53 µM): 0.585
relative viability ([1]; first compound 8 µM): 0.447
relative viability ([4]; first compound 0.01 µM): 0.226
relative viability ([4]; first compound 0.03162 µM): 0.255
relative viability ([4]; first compound 0.1 µM): 0.217
relative viability ([4]; first compound 0.3162 µM): 0.203
relative viability ([4]; first compound 1 µM): 0.201

NCI-H1792
relative viability ([1]; first compound 0.08 µM): 0.312
relative viability ([1]; first compound 0.253 µM): 0.307
relative viability ([1]; first compound 0.8 µM): 0.248
relative viability ([1]; first compound 2.53 µM): 0.255
relative viability ([1]; first compound 8 µM): 0.32
relative viability ([2]; first compound 0.08 µM): 0.453
relative viability ([2]; first compound 0.253 µM): 0.682
relative viability ([2]; first compound 0.8 µM): 0.651
relative viability ([2]; first compound 2.53 µM): 0.67
relative viability ([2]; first compound 8 µM): 0.784
relative viability ([4]; first compound 0.01 µM): 0.277
relative viability ([4]; first compound 0.03162 µM): 0.209
relative viability ([4]; first compound 0.1 µM): 0.288
relative viability ([4]; first compound 0.3162 µM): 0.197
relative viability ([4]; first compound 1 µM): 0.225

NCI-H2342
relative viability ([1]; first compound 0.08 µM): 0.438
relative viability ([1]; first compound 0.253 µM): 0.468
relative viability ([1]; first compound 0.8 µM): 0.398
relative viability ([1]; first compound 2.53 µM): 0.476
relative viability ([1]; first compound 8 µM): 0.395
relative viability ([2]; first compound 0.08 µM): 0.615
relative viability ([2]; first compound 0.253 µM): 0.796
relative viability ([2]; first compound 0.8 µM): 0.765
relative viability ([2]; first compound 2.53 µM): 0.789
relative viability ([2]; first compound 8 µM): 0.759
relative viability ([3]; first compound 0.01 µM): 0.789
relative viability ([3]; first compound 0.03162 µM): 0.671
relative viability ([3]; first compound 0.1 µM): 0.829
relative viability ([3]; first compound 0.3162 µM): 0.856
relative viability ([3]; first compound 1 µM): 0.83

SW 900
relative viability ([1]; first compound 0.08 µM): 0.751
relative viability ([1]; first compound 0.253 µM): 0.667
relative viability ([1]; first compound 0.8 µM): 0.693
relative viability ([1]; first compound 2.53 µM): 0.433
relative viability ([1]; first compound 8 µM): 0.543
relative viability ([2]; first compound 0.08 µM): 0.507
relative viability ([2]; first compound 0.253 µM): 0.4
relative viability ([2]; first compound 0.8 µM): 0.473
relative viability ([2]; first compound 2.53 µM): 0.42
relative viability ([2]; first compound 8 µM): 0.366
relative viability ([3]; first compound 0.01 µM): 0.48
relative viability ([3]; first compound 0.03162 µM): 0.502
relative viability ([3]; first compound 0.1 µM): 0.375
relative viability ([3]; first compound 0.3162 µM): 0.259
relative viability ([3]; first compound 1 µM): 0.505
